# Test results: ChEMBL document CHEMBL1134121, “Biphenyls as surrogates of the steroidal backbone. Part 2: discovery of a novel family of non-steroidal 5-alpha-reductase inhibitors” (Bioorg Med Chem Lett, 2001)
# Columns and labels:
# [1] = molecular target: T1, 3-oxo-5-alpha-steroid 4-dehydrogenase 2 (Homo sapiens, UniProt P31213); experiment: Compound was tested for the inhibition of Steroid 5-alpha-reductase type 2 of human prostates; type: tissue-based, Prostate gland
# T1 sequence (P31213 whole entry): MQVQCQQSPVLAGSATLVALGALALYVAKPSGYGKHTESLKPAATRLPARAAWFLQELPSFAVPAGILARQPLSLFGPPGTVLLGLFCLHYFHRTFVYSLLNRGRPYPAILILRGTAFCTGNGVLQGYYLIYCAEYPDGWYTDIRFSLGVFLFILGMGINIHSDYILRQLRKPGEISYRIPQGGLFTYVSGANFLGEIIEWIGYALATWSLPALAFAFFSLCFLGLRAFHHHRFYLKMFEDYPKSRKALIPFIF
# [2] = molecular target: T2, 3-oxo-5-alpha-steroid 4-dehydrogenase 2 (Homo sapiens) (UniProt P31213); experiment: Compound was tested for the inhibition of Steroid 5-alpha-reductase type 2 of human prostates at a concentration of 10e-6 M; type: tissue-based; details: Prostate gland
# T2 sequence (whole entry): T1 sequence (P31213 whole entry)
# [3] = molecular target: T1, 3-oxo-5-alpha-steroid 4-dehydrogenase 2; experiment: Compound was tested for the inhibition of type 2 5-alpha-reductase of human prostates; type: tissue-based, Prostate gland
IC50 [1] [µM],inhibition [2] [%],SMILES,further results
> 10,–,Cc1cc(C(=O)O)cc(C)c1-c1ccc(OCC(=O)N(C(C)C)C(C)C)cc1,–
–,0,CC(C)N(C(=O)c1cc(Br)c(-c2ccc(C(=O)O)cc2)c(Br)c1)C(C)C,–
–,26.9,CC(C(=O)N(C(C)C)C(C)C)c1ccc(-c2ccc(C(=O)O)cc2)cc1 (stereo not drawn),–
–,–,CC(C)N(C(=O)[C@H]1CC[C@H]2[C@@H]3CCc4cc(C(=O)O)ccc4[C@H]3CC[C@]12C)C(C)C,IC50 [3]: 0.0021 µM
0.57,–,CC(C)N(C(=O)COc1ccc(-c2ccc(C(=O)O)cc2C(F)(F)F)cc1)C(C)C,–
0.071,–,CC(C)c1cc(-c2ccc(C(=O)O)cc2)cc(C(C)C)c1OCC(=O)N(C(C)C)C(C)C,–
–,–,O=C(COc1c(F)cc(-c2ccc(C(=O)O)cc2)cc1[N+](=O)[O-])NC(c1ccccc1)(c1ccccc1)c1ccccc1,IC50 [3]: 0.092 µM
–,37,CC(C)N(C(=O)Cc1ccc(-c2ccc(C(=O)O)cc2)cc1)C(C)C,–
> 10,–,CC(C)N(C(=O)COc1ccc(-c2c(F)cc(C(=O)O)cc2F)cc1)C(C)C,–
–,0,CC(C)N(C(=O)c1cc([N+](=O)[O-])c(-c2ccc(C(=O)O)cc2)c([N+](=O)[O-])c1)C(C)C,–
–,0,CC(C)N(C(=O)c1cc(I)c(-c2ccc(C(=O)O)cc2)c([N+](=O)[O-])c1)C(C)C,–
0.83,57.5,CC(C)N(C(=O)COc1ccc(-c2ccc(C(=O)O)cc2)cc1)C(C)C,–
–,0,CC(C)N(C(=O)c1cc(N)c(-c2ccc(C(=O)O)cc2)c(N)c1)C(C)C,–
> 10,–,CC(C)N(C(=O)COc1cc(Cl)c(-c2ccc(C(=O)O)cc2)c(Cl)c1)C(C)C,–
–,0,CC(C)N(C(=O)c1cc(I)c(-c2ccc(C(=O)O)cc2)c(I)c1)C(C)C,–
> 10,–,CC(C)N(C(=O)COc1ccc(-c2c(Cl)cc(C(=O)O)cc2Cl)cc1)C(C)C,–
–,32.5,CC(C)N(C(=O)c1ccc(-c2ccc(C(=O)O)cc2)cc1)C(C)C,–
–,–,CC(C)N(C(=O)COc1c(F)cc(-c2ccc(C(=O)O)cc2)cc1[N+](=O)[O-])C(C)C,IC50 [3]: 0.0098 µM
–,–,CC(C)N(C(=O)[C@H]1CCC2C3CC[C@H]4NC(=O)CC[C@]4(C)C3CC[C@@]21C)C(C)C (stereo partly drawn),IC50 [3]: 0.041 µM
0.87,–,CC(C)N(C(=O)COc1ccc(-c2ccc(C(=O)O)cc2Cl)cc1)C(C)C,–
–,–,CCc1cc(OCC(=O)N(C(C)C)C(C)C)ccc1-c1ccc(C(=O)O)cc1,IC50 [3]: 2 µM
–,–,CCc1cc(-c2ccc(C(=O)O)cc2)ccc1OCC(=O)N(C(C)C)C(C)C,IC50 [3]: 0.35 µM
